From patent US12390472B2 (SUZHOU SINOVENT PHARMACEUTICALS CO., LTD., priority 2018, dated 2025)
Like-named read-outs stand apart in the source and are kept apart here.

How the values were obtained:
EZH2 (wt) = EZH2 (wt) (Homo sapiens (Human), UniProt Q15910); assay: Test on EZH2 (wt) inhibitory activity ([3H]-SAM Flashplate); type: biochemical
Protocol: Protocols Compounds at different concentrations were dissolved in 100% DMSO and transferred to test plates, and the final concentration of DMSO was 1%. The enzyme solution and the mixture solution of peptide and [3H]-SAM were prepared with 1-fold reaction buffer. 10 uL of enzyme solution was added to the test plate and wells only added with 10 uL of reaction buffer were used as negative control wells. After incubation at room temperature for 15 min, the plate was added with 10 uL of the mixture solution of peptide and [3H]-SAM per well to initiate the reaction which lasts for 60 min at room temperature. The pre-cooled SAM was added to 1-fold reaction buffer to prepare a stop buffer. The reaction was stopped by adding 10 uL of stop buffer per well. 25 uL of solution was transferred from the reaction plate to Flashplate and incubated at room temperature for at least 1 h. The Flashplate was washed 3 times with dH2O+0.1% Tween-20. The plate was read by Microbeta.
(§1) Data were fitted by GraphPad Prism 5 software and inhibition rate was calculated according to equation (1) Inh %=(Max−Signal)/(Max−Min)×100 (1)
(§2) IC50 was calculated using equation (2) Y=Bottom+(Top−Bottom)/(1+10^((Log IC50−X)×Hill Slope))
(§3) Y: inhibition rate; X: concentration of the compound

[1] = In vivo pharmacokinetic properties in mice; parameters: species or system mouse; details: male ICR mice; for F: intragastric 250 mg/kg vs intravenous 5 mg/kg; for CL / AUC(0-inf) / Cmax / Tmax / half-life: single intravenous 5 mg/kg and intragastric 250 mg/kg study; for AUC(0-inf) / Cmax / Tmax / half-life: mouse, plasma; for AUC(0-inf) / Cmax / Tmax: oral; for Cmax: read-out: Cmax; for Tmax: read-out: Tmax
Method in brief: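 Male ICR mice, n=3 per group, dosed once at 5 mg/kg IV in 10% DMSO/90% (20% Captisol) or 250 mg/kg intragastrically in 0.5% CMC-Na/0.1% Tween 80 (pH 3-4). EDTA-K2 plasma sampled from 5 min to 24 h; compound levels measured by LC-MS/MS.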

EZH2 (Y641F) = EZH2 (Y641F) (Homo sapiens (Human), UniProt Q15910, Y641F); assay: Test on EZH2 (Y641F) inhibitory activity; type: biochemical
Protocol: (§4) Compounds at different concentrations were dissolved in 100% DMSO and transferred to test plates, and the final concentration of DMSO was 1%. Enzyme solution and substrate SAM solution were prepared with 1-fold reaction buffer (optimized Tris buffer). 5 uL of enzyme solution was added to the test plate and wells only added with 5 uL of reaction buffer were used as negative control wells. After incubation at room temperature for 15 min, the plate was added with 5 uL of substrate solution per well to initiate the reaction, and then incubated at room temperature for 60 min. 5 uL of receptor solution was added and the plate was incubated away from light at room temperature for 60 min. 10 uL of donor solution was added and the plate was incubated away from light at room temperature for 30 min. The endpoint values were read on the Envision and the IC50 was calculated.
as §1, §2, §3

EZH2 (Y641N) = EZH2 (Y641N) (Homo sapiens (Human), UniProt Q15910, Y641N); assay: Test on EZH2 (Y641N) inhibitory activity; type: biochemical
Protocol: as §4, §1, §2, §3

WSU-DLCL2 cells = assay: Experiment on WSU-DLCL2 cell proliferation (Calcein-AM); type: cell-based; details: Homo sapiens
Protocol: WSU-DLCL2 cells were plated in a 96-well plate and 100 uL of cells (a density of 1×10^5 cells/mL) and 50 uL of compound stock at 3-fold concentration was added to each well, and the final volume was 150 uL/well. After 6 days of culturing, on day 7, the cells in the well plate were mixed well by pipetting, and 50 uL of the cell suspension was pipetted to be tested for cell viability using Calcein-AM. 50 uL of the cell suspension was added to a 96-well plate coated by poly-D-Lysine, and then 50 uL of HBSS containing 2 uM Calcein-AM was added to make the final concentration of Calcein-AM 1 uM. After incubation for 10 min at room temperature, the cells were rapidly centrifuged to be deposited on the bottom of the plate. The cells were cultured in the incubator for another 40 min and then the plate was read on Acumen.
The remaining cells were diluted and then plated in a 96-well plate, and 100 uL of cells and 50 uL of a compound at 3-fold concentration were added to each well for further culturing until day 14, and the cell viability was detected as described above. The IC50 was calculated.

[2] = tested on: subcutaneous xenograft tumor model of human B lymphocyte Pfeiffer; assay: In vivo efficacy in subcutaneous xenograft tumor model of human B lymphocyte Pfeiffer; parameters: species or system mouse; details: SCID Beige mice, 100 mg/kg p.o. QD 21 days, tumor volume 21 days after administration
Protocol: Human B lymphocyte strain Pfeiffer was cultured in vitro, in a monolayer way, in a RPMI-1640 medium containing 10% fetal bovine serum, 100 U/mL penicillin and 100 μg/mL streptomycin in an incubator at 37° C./5% CO2. Conventional medium refreshment and subculturing were carried out twice a week, and cells in logarithmic growth phase were collected and used for tumor inoculation after being counted.
Female SCID Beige mice, aged 6-8 weeks and weighed 18-22 g were used in the experiment. The experiment started after 7-day adaptive feed.
Each mouse was inoculated subcutaneously with 10×10^6 Pfeiffer cells in a volume of 0.2 mL in the right side of the neck. The cells were suspended with PBS and matrigel (volume ratio 1:1). After the average tumor volume reached 130 mm^3, the mice were divided into groups with 8 mice per group for administration. The administration volume was 10 uL/g and the dose was 100 mg/kg if there's no special labeling ((p.o. administration, QD, continuous administration for 21 days).
Animal body weights were measured twice weekly and animal mortality and side effects within each group were recorded based on the number of animals in the group.
The experimental indices were to investigate whether tumor growth was inhibited or delayed or the tumor was cured. Tumor diameters were measured twice weekly using a vernier caliper. The tumor volume was calculated according to the following formula: V=0.5 a×b^2, where a and b represent the long diameter and short diameter of the tumor, respectively. The tumor growth inhibitions (TGIs) of the compounds were evaluated by T/C (%). The percentage value of T/C (%) is an index for reflecting the tumor growth inhibition, where T and C represent the average tumor volume of the administration group and the control group, respectively, at a certain day.
The tumor growth inhibition rate was calculated according to the following formula: TGI (%)=(1−(Ti−T0)/(Vi−V0))×100, where Ti is the average tumor volume of a certain administration group on a certain day, T0 is the average tumor volume of the administration group at the start of administration, Vi is the average tumor volume of the vehicle control group on a certain day (same day as Ti) and V0 is the average tumor volume of the vehicle control group at the start of administration.
Relative tumor volumes at each time point for each group were statistically analyzed and differences among groups were assessed based on the data. The statistical method used for testing was one-way ANOVA.

Pfeiffer cells = assay: Experiment on Pfeiffer cell proliferation (CellTiter-Glo); type: cell-based, human; details: Homo sapiens
Protocol: 90 uL of cells were added to each well of a 96-well plate at 12000 cells/well, and cell-free culture medium was added to blank control wells. The plate was incubated overnight in an incubator at 37° C., 5% CO2 and 100% relative humidity. The compounds were diluted from highest to lowest concentration gradient with DMSO to make stock solutions at 400-fold and 10-fold concentration. 10 μL of 10× compound working solution was added to the cell culture plate, and the total concentration of the compound was detected from 10 μM, 9 concentration points in total, and 3-fold serial dilution was performed. 10 μL of DMSO-cell culture medium mixture solution was added to the vehicle control wells and blank control wells. The final concentration of DMSO was 0.25%. The plate was put back in the incubator for another 7 days of culturing.
The cell culture plate cultured for 7 days was taken out of the incubator, and the suspended cells in the 96-well plate were mixed well by pipetting multiple times. 74 uL of fresh cell culture medium was added to a new 96-well plate, and 16 uL of cell suspension was pipetted from the 96-well plate with cells mixed well by pipetting into the new 96-well plate to bring the total volume to 90 uL. Cells in the new 96-well plate were treated with the compound. The new 96-well plate was put back in the incubator for another 7 days of culturing, and then cell viability was detected directly.
84 μL of cell suspension was taken from the cell culture plate for cell viability detection.
CellTiter-Glo buffer and substrate were thawed and balanced to room temperature. The CellTiter-Glo buffer was added to a bottle of CellTiter-Glo substrate to dissolve the substrate, thereby preparing CellTiter-Glo working solution. The bottle was subjected to slow vortex shaking to completely dissolve the substrate. The cell culture plate was taken out and balanced to room temperature for 30 min. 50 μL of CellTiter-Glo working solution was added to each well. The cell plate was wrapped with aluminum foil to keep out of light. The plate was shaken on an orbital shaker for 2 min to induce cell lysis. The plate was placed at room temperature for 10 min to stabilize the luminescence signals. The luminescence signals were detected on 2104 En Vision plate reader.
Inhibition rates of compounds at different concentrations were calculated in Excel, followed by plotting the inhibition curves and calculating relevant parameters including minimum (%), maximum (%), and absolute IC50 using GraphPad Prism software.

Chain of EZH2 (wt) (Q15910 whole entry): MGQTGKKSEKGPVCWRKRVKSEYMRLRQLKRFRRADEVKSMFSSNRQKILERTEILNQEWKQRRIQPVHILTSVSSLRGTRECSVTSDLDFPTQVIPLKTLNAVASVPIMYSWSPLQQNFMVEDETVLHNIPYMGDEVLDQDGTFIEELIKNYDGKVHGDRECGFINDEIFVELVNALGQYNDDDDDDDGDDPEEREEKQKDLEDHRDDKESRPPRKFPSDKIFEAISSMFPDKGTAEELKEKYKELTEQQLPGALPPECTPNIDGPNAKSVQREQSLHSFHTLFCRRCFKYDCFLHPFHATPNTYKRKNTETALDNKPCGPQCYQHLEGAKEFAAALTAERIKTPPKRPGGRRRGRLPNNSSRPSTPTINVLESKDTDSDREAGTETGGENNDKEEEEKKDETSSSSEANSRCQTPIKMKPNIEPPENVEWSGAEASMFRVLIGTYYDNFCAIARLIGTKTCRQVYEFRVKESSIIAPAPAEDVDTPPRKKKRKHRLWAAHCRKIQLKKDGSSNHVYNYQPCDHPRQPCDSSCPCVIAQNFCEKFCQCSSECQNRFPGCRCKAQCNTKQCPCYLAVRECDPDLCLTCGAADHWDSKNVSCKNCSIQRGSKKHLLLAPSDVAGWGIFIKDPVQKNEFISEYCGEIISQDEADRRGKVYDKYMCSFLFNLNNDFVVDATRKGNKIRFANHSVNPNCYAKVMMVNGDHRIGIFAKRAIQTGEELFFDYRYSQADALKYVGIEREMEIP
Chain of EZH2 (wt) (O75530 whole entry partner): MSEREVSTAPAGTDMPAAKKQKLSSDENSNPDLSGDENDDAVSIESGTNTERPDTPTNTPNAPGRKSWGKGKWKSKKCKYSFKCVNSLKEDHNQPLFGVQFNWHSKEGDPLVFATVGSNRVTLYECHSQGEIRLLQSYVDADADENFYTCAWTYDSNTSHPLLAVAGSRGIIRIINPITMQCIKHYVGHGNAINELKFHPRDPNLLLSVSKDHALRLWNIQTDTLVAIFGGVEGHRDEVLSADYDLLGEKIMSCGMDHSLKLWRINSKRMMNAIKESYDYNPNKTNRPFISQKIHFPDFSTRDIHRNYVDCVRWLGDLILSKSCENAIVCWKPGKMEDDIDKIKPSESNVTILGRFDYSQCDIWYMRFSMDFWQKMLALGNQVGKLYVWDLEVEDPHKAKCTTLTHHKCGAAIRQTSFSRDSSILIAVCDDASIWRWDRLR
Chain of EZH2 (wt) (Q15022 whole entry partner): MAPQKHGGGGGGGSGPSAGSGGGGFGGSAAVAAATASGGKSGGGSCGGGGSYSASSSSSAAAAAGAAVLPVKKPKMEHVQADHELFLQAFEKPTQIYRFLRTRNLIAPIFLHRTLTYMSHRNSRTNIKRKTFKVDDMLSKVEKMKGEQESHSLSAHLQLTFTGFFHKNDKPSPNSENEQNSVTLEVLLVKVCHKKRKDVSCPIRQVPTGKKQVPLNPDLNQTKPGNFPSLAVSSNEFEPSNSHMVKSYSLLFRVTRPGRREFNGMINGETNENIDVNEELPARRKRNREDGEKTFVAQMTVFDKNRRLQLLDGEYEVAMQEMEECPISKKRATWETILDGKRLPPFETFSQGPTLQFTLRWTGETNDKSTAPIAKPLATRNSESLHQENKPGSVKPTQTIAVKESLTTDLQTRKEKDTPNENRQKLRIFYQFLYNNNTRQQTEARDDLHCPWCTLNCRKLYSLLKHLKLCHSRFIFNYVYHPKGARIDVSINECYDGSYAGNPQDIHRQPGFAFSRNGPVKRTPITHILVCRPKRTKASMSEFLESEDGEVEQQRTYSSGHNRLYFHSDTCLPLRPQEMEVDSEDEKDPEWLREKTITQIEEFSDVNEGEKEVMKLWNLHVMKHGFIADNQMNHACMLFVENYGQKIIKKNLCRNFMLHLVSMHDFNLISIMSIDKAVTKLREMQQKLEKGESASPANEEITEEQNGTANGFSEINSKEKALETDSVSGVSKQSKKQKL
Chain of EZH2 (Y641N) (Q15910 whole entry Y641N): as the sequence (Q15910 whole entry) above, with Y641N counted along it
Chain of EZH2 (Y641N) (O75530 whole entry partner): as the sequence (O75530 whole entry partner) above
Chain of EZH2 (Y641N) (Q15022 whole entry partner): as the sequence (Q15022 whole entry partner) above
Chain of EZH2 (Y641F) (Q15910 whole entry Y641F): as the sequence (Q15910 whole entry) above, with Y641F counted along it
Chain of EZH2 (Y641F) (O75530 whole entry partner): as the sequence (O75530 whole entry partner) above
Chain of EZH2 (Y641F) (Q15022 whole entry partner): as the sequence (Q15022 whole entry partner) above

## CCN(c1cc(O[C@H]2C[C@H](N3C[C@@H](C)O[C@@H](C)C3)C2)cc(C(=O)NCc2c(OC)cc(C)[nH]c2=O)c1C)C1CCC(F)(F)CC1 [Example 87, 3-((4,4-difluorocyclohexyl)(ethyl)amino)-5-(trans-3-(cis-2,6-dimethylmorpholino)cyclobutoxy)-N-((4-methoxy-6-methyl-2-oxo-1,2-dihydropyridin-3-yl)methyl)-2-methylbenzamide]
EZH2 (wt)
  IC50: 1.2 nM
[1]
  F: 35.4%
  CL: 31.0 ± 2.82 mL/min/lg
  AUC(0-inf): 47800 ng·h/mL
  Cmax: 10600 ± 4150 ng/mL
  Tmax: 0.83 ± 0.29 h
  half-life: 5.77 ± 1.51 h
EZH2 (Y641F)
  IC50: 5.5 nM
EZH2 (Y641N)
  IC50: 2.6 nM
WSU-DLCL2 cells; WSUDLCL2, 168 h, WSU-DLCL2, Day 7, read-out: IC50 WSU-DLCL2 proliferation Day 7
  IC50: 40 nM
WSU-DLCL2 cells; WSUDLCL2, 336 h, WSU-DLCL2, Day 14, read-out: IC50 WSU-DLCL2 proliferation Day 14
  IC50: 9 nM
[2]
  TGI: 42.84%
Pfeiffer cells; 168 h, Day 7, read-out: IC50 Pfeiffer proliferation Day 7
  IC50: 20 nM
Pfeiffer cells; 336 h, Day 14, read-out: IC50 Pfeiffer proliferation Day 14
  IC50: 4.3 nM

## CCN(c1cc(O[C@H]2C[C@H](N3C[C@@H](C)O[C@@H](C)C3)C2)cc(C(=O)NCc2c(OC)cc(C)[nH]c2=O)c1C)C1CC2CCC(C1)O2 (stereo partly drawn) [Example 88, 3-((8-oxabicyclo[3.2.1]octan-3-yl)(ethyl)amino)-5-(trans-3-(cis-2,6-dimethylmorpholinyl)cyclobutoxy)-N-((4-methoxy-6-methyl-2-oxo-1,2-dihydropyridin-3-yl)methyl)-2-methylbenzamide]
EZH2 (wt)
  IC50: 1.1 nM
[1]
  F: 33.4%
  CL: 60.4 ± 0.15 mL/min/lg
  AUC(0-inf): 23000 ± 4540 ng·h/mL
  Cmax: 10200 ± 1450 ng/mL
  Tmax: 0.5 h
  half-life: 2.26 ± 0.87 h
EZH2 (Y641F)
  IC50: 3.3 nM
EZH2 (Y641N)
  IC50: 2 nM
[2]
  TGI: 32.83%

## CCN(c1cc(O[C@H]2C[C@H](N3CCCCC3)C2)cc(C(=O)NCc2c(OC)cc(C)[nH]c2=O)c1C)C1CCOCC1 [Example 93, 3-(ethyl(tetrahydro-2H-pyran-4-yl)amino)-N-((4-methoxy-6-methyl-2-oxo-1,2-dihydropyridin-3-yl)methyl)-2-methyl-5-(trans-3-(piperidin-1-yl)cyclobutoxy)benzamide]
EZH2 (wt)
  IC50: < 0.51 nM
[1]
  F: 23.1%
  CL: 45.17 ± 4.21 mL/min/lg
  AUC(0-inf): 21500 ± 2110 ng·h/mL
  Cmax: 10700 ± 4120 ng/mL
  Tmax: 0.33 ± 0.14 h
  half-life: 1.3 ± 0.64 h
EZH2 (Y641F)
  IC50: < 0.51 nM
EZH2 (Y641N)
  IC50: < 0.51 nM
